Reference: patent publication US20250171438A1 (Agios Pharmaceuticals, Inc., priority 2022, published 2025)

Biological target: T1, human PAH with the R408W mutation (Homo sapiens, UniProt P00439, R408W)
T1 construct: expressed in transfected cells
T1 sequence (P00439 1-452 R408W): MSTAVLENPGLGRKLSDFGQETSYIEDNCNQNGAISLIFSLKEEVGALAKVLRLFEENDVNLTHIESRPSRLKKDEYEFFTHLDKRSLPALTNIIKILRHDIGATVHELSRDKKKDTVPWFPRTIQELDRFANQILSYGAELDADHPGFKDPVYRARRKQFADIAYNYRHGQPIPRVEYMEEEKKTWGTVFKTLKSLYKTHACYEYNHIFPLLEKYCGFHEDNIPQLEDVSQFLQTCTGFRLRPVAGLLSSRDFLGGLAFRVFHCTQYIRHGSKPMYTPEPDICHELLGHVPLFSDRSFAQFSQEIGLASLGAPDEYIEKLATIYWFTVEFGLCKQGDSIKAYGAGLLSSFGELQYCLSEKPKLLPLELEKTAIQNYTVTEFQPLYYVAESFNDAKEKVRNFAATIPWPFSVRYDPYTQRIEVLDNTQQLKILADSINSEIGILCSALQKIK
Assay: Cell Based Phenylalanine Flux Assay
Settings: A375 cells expressing human R408W PAH; 24 hrs compound incubation; 13C-Tyrosine by LC-MS; average where tested multiple times; read-out: AC50

| Compound | AC50 [µM] |
| --- | --- |
| Cc1nc(C(C)(C)F)oc1C(=O)N1CCc2[nH]cnc2[C@H]1c1nc2c(F)cccc2s1 [Example 1499, (S)-(4-(4-fluorobenzo[d]thiazol-2-yl)-6,7-dihydro-1H-imidazo[4,5-c]pyridin-5(4H)-yl)(2-(2-fluoropropan-2-yl)-4-methyloxazol-5-yl)methanone] | < 0.5 |
| Cc1nc(C(C)(C)F)oc1C(=O)N1CCc2[nH]cnc2[C@@H]1c1nc2c(F)cccc2s1 [Example 1500, (R)-(4-(4-fluorobenzo[d]thiazol-2-yl)-6,7-dihydro-1H-imidazo[4,5-c]pyridin-5(4H)-yl)(2-(2-fluoropropan-2-yl)-4-methyloxazol-5-yl)methanone] | 0.5 to 1 |
| CC(C)(O)c1ccc2c(C(=O)N3CCc4[nH]cnc4[C@H]3c3nc4c(F)cccc4s3)cnn2c1 [Example 1501, (S)-(4-(4-fluorobenzo[d]thiazol-2-yl)-6,7-dihydro-1H-imidazo[4,5-c]pyridin-5(4H)-yl)(6-(2-hydroxypropan-2-yl)pyrazolo[1,5-a]pyridin-3-yl)methanone] | < 0.5 |
| CC(C)(O)c1ccc2c(C(=O)N3CCc4[nH]cnc4[C@@H]3c3nc4c(F)cccc4s3)cnn2c1 [Example 1502, (R)-(4-(4-fluorobenzo[d]thiazol-2-yl)-6,7-dihydro-1H-imidazo[4,5-c]pyridin-5(4H)-yl)(6-(2-hydroxypropan-2-yl)pyrazolo[1,5-a]pyridin-3-yl)methanone] | 1 to 5 |
| O=C(c1cnc(-c2c(F)cccc2F)s1)N1CCc2[nH]cnc2[C@@H]1c1nc2c(F)cccc2s1 [Example 1503, (R)-(2-(2,6-difluorophenyl)thiazol-5-yl)(4-(4-fluorobenzo[d]thiazol-2-yl)-6,7-dihydro-1H-imidazo[4,5-c]pyridin-5(4H)-yl)methanone] | < 0.5 |
| O=C(c1cnc(-c2c(F)cccc2F)s1)N1CCc2[nH]cnc2[C@H]1c1nc2c(F)cccc2s1 [Example 1504] | < 0.5 |
| Cc1nc(-c2cnn(CC(F)(F)F)c2)oc1C(=O)N1CCc2[nH]cnc2[C@@H]1c1nc2c(F)cccc2s1 [Example 1505, (R)-(4-(4-fluorobenzo[d]thiazol-2-yl)-6,7-dihydro-1H-imidazo[4,5-c]pyridin-5(4H)-yl)(4-methyl-2-(1-(2,2,2-trifluoroethyl)-1H-pyrazol-4-yl)oxazol-5-yl)methanone] | 1 to 5 |
| Cc1nc(-c2cnn(CC(F)(F)F)c2)oc1C(=O)N1CCc2[nH]cnc2[C@H]1c1nc2c(F)cccc2s1 [Example 1506, (S)-(4-(4-fluorobenzo[d]thiazol-2-yl)-6,7-dihydro-1H-imidazo[4,5-c]pyridin-5(4H)-yl)(4-methyl-2-(1-(2,2,2-trifluoroethyl)-1H-pyrazol-4-yl)oxazol-5-yl)methanone] | < 0.5 |
| O=C(c1cnc(-c2c(F)cccc2F)s1)N1CCc2[nH]cnc2[C@H]1c1nc2ccccc2s1 [Example 1509] | < 0.5 |
| O=C(c1cnc(-c2c(F)cccc2F)s1)N1CCc2[nH]cnc2[C@@H]1c1nc2ccccc2s1 [Example 1510, (R)-(4-(benzo[d]thiazol-2-yl)-6,7-dihydro-1H-imidazo[4,5-c]pyridin-5(4H)-yl)(2-(2,6-difluorophenyl)thiazol-5-yl)methanone] | < 0.5 |
| CC(F)(F)c1ncc(C(=O)N2CCc3[nH]cnc3[C@H]2c2nc3c(F)cccc3s2)s1 [Example 1513] | < 0.5 |
| CC(F)(F)c1ncc(C(=O)N2CCc3[nH]cnc3[C@@H]2c2nc3c(F)cccc3s2)s1 [Example 1514, (R)-(2-(1,1-difluoroethyl)thiazol-5-yl)(4-(4-fluorobenzo[d]thiazol-2-yl)-6,7-dihydro-1H-imidazo[4,5-c]pyridin-5(4H)-yl)methanone] | 1 to 5 |
| O=C(c1ocnc1-c1ccccn1)N1CCc2[nH]cnc2[C@H]1c1nc2c(F)cccc2s1 [Example 1523, (S)-(4-(4-fluorobenzo[d]thiazol-2-yl)-6,7-dihydro-1H-imidazo[4,5-c]pyridin-5(4H)-yl)(4-(pyridin-2-yl)oxazol-5-yl)methanone] | 0.5 to 1 |
| O=C(c1ocnc1-c1ccccn1)N1CCc2[nH]cnc2[C@@H]1c1nc2c(F)cccc2s1 [Example 1524, (R)-(4-(4-fluorobenzo[d]thiazol-2-yl)-6,7-dihydro-1H-imidazo[4,5-c]pyridin-5(4H)-yl)(4-(pyridin-2-yl)oxazol-5-yl)methanone] | > 5 |
| Cc1nc(C2CC2)oc1C(=O)N1CCc2[nH]cnc2[C@H]1c1nc2c(F)cccc2s1 [Example 1527] | < 0.5 |
| Cc1nc(C2CC2)oc1C(=O)N1CCc2[nH]cnc2[C@@H]1c1nc2c(F)cccc2s1 [Example 1528, (R)-(2-cyclopropyl-4-methyloxazol-5-yl)(4-(4-fluorobenzo[d]thiazol-2-yl)-6,7-dihydro-1H-imidazo[4,5-c]pyridin-5(4H)-yl)methanone] | 1 to 5 |
| O=C(c1ccn2ncccc12)N1CCc2[nH]cnc2[C@H]1c1nc2ccccc2s1 [Example 1529] | 0.5 to 1 |
| O=C(c1ccn2ncccc12)N1CCc2[nH]cnc2[C@@H]1c1nc2ccccc2s1 [Example 1530, (R)-(4-(benzo[d]thiazol-2-yl)-6,7-dihydro-1H-imidazo[4,5-c]pyridin-5(4H)-yl)(pyrrolo[1,2-b]pyridazin-5-yl)methanone] | > 5 |
| O=C(c1oc(-c2ccccn2)nc1C1CC1)N1CCc2[nH]cnc2[C@H]1c1nc2c(F)cccc2s1 [Example 1535] | < 0.5 |

Now from value to molecule:

| AC50 [µM] | Compound |
| --- | --- |
| 1 to 5 | CC(C)(O)c1nnc(C(=O)N2CCc3[nH]cnc3[C@@H]2c2nc3ccccc3s2)o1 [Example 1507, (R)-(4-(benzo[d]thiazol-2-yl)-6,7-dihydro-1H-imidazo[4,5-c]pyridin-5(4H)-yl)(5-(2-hydroxypropan-2-yl)-1,3,4-oxadiazol-2-yl)methanone] |
| 1 to 5 | CC(C)(O)c1nnc(C(=O)N2CCc3[nH]cnc3[C@H]2c2nc3ccccc3s2)o1 [Example 1508] |
| < 0.5 | CC(F)(F)c1ncc(C(=O)N2CCc3[nH]cnc3[C@H]2c2nc3ccccc3s2)s1 [Example 1511] |
| 1 to 5 | CC(F)(F)c1ncc(C(=O)N2CCc3[nH]cnc3[C@@H]2c2nc3ccccc3s2)s1 [Example 1512, (R)-(4-(benzo[d]thiazol-2-yl)-6,7-dihydro-1H-imidazo[4,5-c]pyridin-5(4H)-yl)(2-(1,1-difluoroethyl)thiazol-5-yl)methanone] |
| < 0.5 | O=C(c1oc(-c2ccccn2)nc1C1CC1)N1CCc2[nH]cnc2[C@H]1c1nc2ccccc2s1 [Example 1515] |
| > 5 | O=C(c1oc(-c2ccccn2)nc1C1CC1)N1CCc2[nH]cnc2[C@@H]1c1nc2ccccc2s1 [Example 1516, (R)-(4-(benzo[d]thiazol-2-yl)-6,7-dihydro-1H-imidazo[4,5-c]pyridin-5(4H)-yl)(4-cyclopropyl-2-(pyridin-2-yl)oxazol-5-yl)methanone] |
| 1 to 5 | Cn1cc(-c2nc(C3CC3)c(C(=O)N3CCc4[nH]cnc4[C@@H]3c3nc4ccccc4s3)o2)cn1 [Example 1517, (R)-(4-(benzo[d]thiazol-2-yl)-6,7-dihydro-1H-imidazo[4,5-c]pyridin-5(4H)-yl)(4-cyclopropyl-2-(1-methyl-1H-pyrazol-4-yl)oxazol-5-yl)methanone] |
| < 0.5 | Cn1cc(-c2nc(C3CC3)c(C(=O)N3CCc4[nH]cnc4[C@H]3c3nc4ccccc4s3)o2)cn1 [Example 1518] |
| > 5 | Cc1nc(-c2ccccc2)c(C(=O)N2CCc3[nH]cnc3[C@@H]2c2nc3ccccc3s2)o1 [Example 1519, (R)-(4-(benzo[d]thiazol-2-yl)-6,7-dihydro-1H-imidazo[4,5-c]pyridin-5(4H)-yl)(2-methyl-4-phenyloxazol-5-yl)methanone] |
| 0.5 to 1 | Cc1nc(-c2ccccc2)c(C(=O)N2CCc3[nH]cnc3[C@H]2c2nc3ccccc3s2)o1 [Example 1520] |
| < 0.5 | O=C(c1cnc(C(F)F)s1)N1CCc2[nH]cnc2[C@H]1c1nc2ccccc2s1 [Example 1521] |
| 1 to 5 | O=C(c1cnc(C(F)F)s1)N1CCc2[nH]cnc2[C@@H]1c1nc2ccccc2s1 [Example 1522, (R)-(4-(benzo[d]thiazol-2-yl)-6,7-dihydro-1H-imidazo[4,5-c]pyridin-5(4H)-yl)(2-(difluoromethyl)thiazol-5-yl)methanone] |
| 0.5 to 1 | Cn1nc(C(=O)N2CCc3[nH]cnc3[C@H]2c2nc3ccccc3s2)c2ccccc21 [Example 1525] |
| 1 to 5 | Cn1nc(C(=O)N2CCc3[nH]cnc3[C@@H]2c2nc3ccccc3s2)c2ccccc21 [Example 1526, (R)-(4-(benzo[d]thiazol-2-yl)-6,7-dihydro-1H-imidazo[4,5-c]pyridin-5(4H)-yl)(1-methyl-1H-indazol-3-yl)methanone] |
| < 0.5 | Cc1ocnc1CC(=O)N1CCc2[nH]cnc2[C@H]1c1nc2ccccc2s1 [Example 1531] |
| > 5 | Cc1ocnc1CC(=O)N1CCc2[nH]cnc2[C@@H]1c1nc2ccccc2s1 [Example 1532, (R)-1-(4-(benzo[d]thiazol-2-yl)-6,7-dihydro-1H-imidazo[4,5-c]pyridin-5(4H)-yl)-2-(5-methyloxazol-4-yl)ethanone] |
| < 0.5 | Nc1nc(C(F)(F)F)c(C(=O)N2CCc3[nH]cnc3[C@H]2c2nc3ccccc3s2)o1 [Example 1533] |
| 0.5 to 1 | Nc1nc(C(F)(F)F)c(C(=O)N2CCc3[nH]cnc3[C@@H]2c2nc3ccccc3s2)o1 [Example 1534, (R)-(2-amino-4-(trifluoromethyl)oxazol-5-yl)(4-(benzo[d]thiazol-2-yl)-6,7-dihydro-1H-imidazo[4,5-c]pyridin-5(4H)-yl)methanone] |
